Results reported in patent US5663149A, “Human cancer inhibitory pentapeptide heterocyclic and halophenyl amides” (priority 1994, dated 1997).

How the values were obtained:
OVCAR-3 (Ovarian) = assay: NCI human tumor cell line growth inhibition, OVCAR-3; assay type: cell-based; conditions: Ovarian OVCAR-3, 48 hours
Description: (§1) The only difference is historical usage.
(§2) Percent Growths are calculated for each dose.
(§3) This is the "baseline count", or "Tzero reading".

PS-388 (Mouse Leukemia) = assay: P-388 mouse leukemia cell growth inhibition; assay type: cell-based; conditions: Mouse Leukemia PS-388
Description: as §1, §2, §3

SF-295 (CNS) = assay: NCI human tumor cell line growth inhibition, SF-295; assay type: cell-based; conditions: CNS SF-295, 48 hours
Description: as §1, §2, §3

A498 (Renal) = conditions: Renal A498, 48 hours;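 further: NCI protocol, compound given at five doses from 0.01 to 100 µg/ml, percent growth versus untreated controls relative to cell count at time zero, regression on log dose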
Description: The following measures are used to express drug activity by giving the drug dose which reduces cell growth to a specified percentage of growth:
There is no mathematical difference between ED50 and GI50, which are both calculated using the same formula. The only difference is historical usage.
TGI, (Total Growth Inhibition), is the drug dose needed to yield zero percent growth, i.e., just as many cells at the end of the experiment as were present in the beginning. Whether just as many cells were killed as were produced (steady state), or no growth occurred (total inhibition), cannot be distinguished.
Each drug is tested at five (5) doses: 100-10-1-0.1-0.01 μg/ml. Percent Growths are calculated for each dose. […] The log of the dose is used during the regression computation.
At the start of an experiment, cells from the in vitro cell cultures are inoculated into the appropriate tubes or microtiter plates. One set of control tubes/plates is immediately counted to determine the number of cells at the start of the experiment. This is the "baseline count", or "Tzero reading". At the end of the experiment (48 hours later) a second set of control tubes/plates is analyzed to determine the "Control Growth" value. The growth (or death) of cells relative to the initial quantity of cells is used to define the "Percent of Growth".

NCI-H460 (Lung-NSC) = assay: NCI human tumor cell line growth inhibition, NCI-H460; assay type: cell-based; conditions: Lung-NSC NCI-H460, 48 hours
Description: as §1, §2, §3

KM20L2 (Colon) = assay: NCI human tumor cell line growth inhibition, KM20L2; assay type: cell-based; conditions: Colon KM20L2, 48 hours
Description: as §1, §2, §3

SK-MEL-5 (Melanoma) = assay: NCI human tumor cell line growth inhibition, SK-MEL-5; assay type: cell-based; conditions: for GI-50 / TGI / LC-50: Melanoma SK-MEL-5, 48 hours
Description: as §1, §2, §3

Substance	GI-50 (OVCAR-3 (Ovarian)) [µg/mL]	TGI (OVCAR-3 (Ovarian)) [ng/mL]	ED-50 (PS-388 (Mouse Leukemia)) [µg/mL]	GI-50 (SF-295 (CNS)) [µg/mL]	TGI (SF-295 (CNS)) [ng/mL]	GI-50 (A498 (Renal)) [µg/mL]	TGI (A498 (Renal)) [ng/mL]	GI-50 (NCI-H460 (Lung-NSC)) [µg/mL]	TGI (NCI-H460 (Lung-NSC)) [ng/mL]	GI-50 (KM20L2 (Colon)) [µg/mL]	TGI (KM20L2 (Colon)) [ng/mL]	GI-50 (SK-MEL-5 (Melanoma)) [µg/mL]	TGI (SK-MEL-5 (Melanoma)) [ng/mL]	LC-50 (OVCAR-3 (Ovarian)) [µg/mL]	LC-50 (SF-295 (CNS)) [µg/mL]	LC-50 (A498 (Renal)) [µg/mL]	LC-50 (NCI-H460 (Lung-NSC)) [µg/mL]	LC-50 (KM20L2 (Colon)) [µg/mL]	LC-50 (SK-MEL-5 (Melanoma)) [µg/mL]	human tumor inhibiting activity (SK-MEL-5 (Melanoma); Melanoma SK-MEL-5 cell line, statement in words)
L-Dolavalyl-L-Valyl-N-Methyl-(S,S,R)-Dolaisoleuinyl-(S,R,R)-Dolaproinyl-L- Phenylalanine N-2-(6-Fluoro)benzothiazole Amide [9j]	0.0000031	0.012	0.000227	0.0000044	> 0.1	0.000016	> 0.1	0.0000041	0.036	0.0000033	0.013	0.0000013	> 0.1	–	–	–	–	–	–	–
L-Dolavalyl-L-Valyl-N-Methyl-(S,S,R)-Dolaisoleuinyl-(S,R,R)-Dolaproinyl-L- Phenylalanine N-3-Chlorophenyl Amide [9d]	0.000018	0.16	0.00258	0.000041	> 1	0.00012	> 1	0.0000094	0.11	0.000007	0.19	< 1e-12	5.1	> 0.01	> 0.01	> 0.01	> 0.01	> 0.01	> 0.01	unprecedented and extraordinary human tumor inhibiting activity
L-Dolavalyl-L-Valyl-N-Methyl-(S,S,R)-Dolaisoleuinyl-(S,R,R)-Dolaproinyl-L- Phenylalanine N-4-Chlorophenyl Amide [9f]	0.0000014	0.0056	0.0000452	0.0000025	> 0.1	0.000007	> 0.1	0.0000018	0.01	0.0000029	0.0084	0.0000002	0.047	> 0.0001	> 0.0001	> 0.0001	> 0.0001	> 0.0001	> 0.0001	–
L-Dolavalyl-L-Valyl-N-Methyl-(S,S,R)-Dolaisoleuinyl-(S,R,R)-Dolaproinyl-L- Proline N-2-Benzothiazole Amide [9n]	0.000027	0.079	0.00083	0.000035	> 0.1	0.000081	> 0.1	0.000031	> 0.1	0.000029	> 0.1	0.0000098	> 0.1	–	–	–	–	–	–	–
L-Dolavalyl-L-Valyl-N-Methyl-(S,S,R)-Dolaisoleuinyl-(S,R,R)-Dolaproinyl-L- Proline N-3-Quinoline Amide [9q]	0.000086	> 0.1	0.000415	0.00036	> 0.1	0.00041	> 0.1	0.0003	> 0.1	0.00033	> 0.1	0.00011	> 0.1	> 0.0001	> 0.0001	> 0.0001	> 0.0001	> 0.0001	> 0.0001	–
L-Dolavalyl-L-Valyl-N-Methyl-(S,S,R)-Dolaisoleuinyl-(S,R,R)-Dolaproinyl-L- Valine N-3-Quinoline Amide [9r]	0.000019	0.069	0.0041	0.000027	> 0.1	0.000051	> 0.1	0.000026	> 0.1	0.000031	> 0.1	0.0000057	> 0.1	> 0.0001	> 0.0001	> 0.0001	> 0.0001	> 0.0001	> 0.0001	–
